The data set has as its system P-glycoprotein (Pgp, MDR1). In words: MDCKII-MDR1 permeability and Pgp efflux. The data set is classed as in vitro ADME. The settings on record: dog.

What is called Papp A→B is how fast a substance crosses the layer from the apical side. A lower Papp A→B goes with poor permeation. One may read the Papp B→A as the apparent permeability from the basolateral to the apical side of a cell layer. In general, efflux ratio refers to a quotient of directional permeabilities that is used to spot active efflux.

On to `COCCc1ccc(OCC(O)CNC(C)C)cc1` (centres unmarked) [metoprolol], for which, where the note is “MDCK-MDR1”, the Papp A→B came to 28.6 ×10⁻⁶ cm/s, the Papp B→A was 28 ×10⁻⁶ cm/s and the efflux ratio amounted to 0.98. This compound also gave a recovery (MDCK-MDR1, recovery (%) A-B, MDCKII-MDR1, A-B) of 109%. In addition, the recovery (MDCK-MDR1, recovery (%) B-A, MDCKII-MDR1, B-A) is 97.4%.

The record behind these values is paper PMC13349481 (ACS chemical biology, 2025).
